Data taken from paper PMC10355216, “The C-terminal tail of CSNAP attenuates the CSN complex” (Life Science Alliance, 2023).

What was measured:
recombinant CSN complex = test: Peptide array screen of C-CSNAP peptides with recombinant CSN (rCSN^WT); format: binding; settings: for Average fold change, intensities as fold of C-CSNAP (A1): rCSN^WT on INTAVIS Celluspots array, anti-CSN3 and HRP secondary antibody, average of six replicates (three independent experiments in duplicates); for Average fold change: peptide array with rCSN, average of 3 experiments, left and right (n = 6), fold of C-CSNAP (A1);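 for all read-outs here: densitometric signal of CSN bound to each synthesized peptide spot, with an antibody-only array lacking CSN run to exclude non-specific binding, higher values meaning stronger binding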
Description: To generate an optimized C-CSNAP peptide, we used the peptide array methodology. The array was designed to screen for the optimal peptide length, sequence, and stability (Fig 3A). A recombinant CSN complex was expressed, purified, and screened for binding to the peptide array by using an anti-CSN3 antibody. To rule out non-specific binding of the probing antibody, a control experiment was carried out without the addition of the CSN complex (Fig 3A right panel).
C-CSNAP peptide and its derivatives were synthesized on a microarray. The array was blocked and incubated with or without the COP9 signalosome complex (CSN) and probed using an anti-CSN3 antibody and HRP-conjugated secondary antibody. To assess non-specific binding of the antibodies to the array, anti-CSN3 and anti-GAR–HRP were used without the addition of the CSN. Signal intensity of each spot was measured and normalized to the intensity of the spot of C-CSNAP (A1). Measured values for each spot were averaged from six arrays and plotted with SEM. […] (A) A representative image of the peptide array (left) and the background (right). (B) Elongation of the C-terminal 16 amino acids (green) with one residue at a time based on the full-length sequence. […] (F) Single D-amino acid substitution at various positions.
(§1) Intensity values are normalized to the intensity of the 16AA C-CSNAP peptide (A1) on each array from three independent experiments in duplicates, and averages from the six replicates are calculated with SEM.
(§2) Optimization of C-CSNAP sequence for enhanced binding to recombinant CSN^ΔCSNAP was screened by printing the modified sequences of CSNAP or C-CSNAP (Phe to Trp, Asp to Glu, Ala screen, D-amino acid screen, N-α-methylation, and Aib incorporation on INTAVIS Celluspots array [2 × 384spots]). The array was blocked with 5% skim milk in TBS-0.5% Tween 20 (TBS-T) for 4 h at room temperature, washed three times in TBS-T, and then incubated with 0.5 μM CSN^ΔCSNAP in 5% milk–TBS-T. Bound CSN^ΔCSNAP was visualized by incubating with anti-CSN3 (ab79698) antibody (1:10,000, overnight) and goat-anti-rabbit-HRP secondary antibody (1:10,000, 1 h).

CSN^ΔCSNAP complex = test: Peptide array screen of C-CSNAP peptides with rCSN^ΔCSNAP; format: binding; settings: average of 5 experiments;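 note: Array-printed peptides incubated with 0.5 µM CSN^ΔCSNAP, bound complex detected by anti-CSN3 antibody plus HRP-linked secondary, spot intensity expressed relative to the parent reference peptide spot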
Description: Peptide array screen of modified C-CSNAP peptides. C-CSNAP peptide and its derivatives were printed on a microarray. The array was blocked and incubated with or without the CSN∆CSNAP complex and probed using an anti-CSN3 antibody and HRP-conjugated secondary antibody. To assess non-specific binding of the antibodies to the array, anti-CSN3 and anti-GAR-HRP were used without the addition of the COP9 signalosome complex (CSN). Signal intensity of each spot was measured and normalized to the intensity of the spot of C-CSNAP (A1). Measured values for each spot were averaged from six arrays and plotted with standard errors SEM.
as §1, §2

[1] = peptide array, rCSN^ΔCSNAP, left and right spots
[2] = peptide array with rCSN^ΔCSNAP, left and right (n = 10), fold of C-CSNAP (A1)

Row | Sequence | Average fold change, intensities as fold of C-CSNAP (A1) (recombinant CSN complex) | Average fold change (CSN^ΔCSNAP complex; [1]) | Average fold change (recombinant CSN complex) [fold] | Average fold change (CSN^ΔCSNAP complex; [2]) [fold]
1 | DFFNDFEELFEDEDIQ [Position E18, C-CSNAP, Asp to Glu substitution D49,52,54E] | 0.6310 fold of C-CSNAP (A1) | 0.9681 fold of C-CSNAP (A1) | – | –
2 | DFFNDFEELFEEDDIQ [Position E17, C-CSNAP, Asp to Glu substitution D49,52,53E] | 0.6206 fold of C-CSNAP (A1) | 1.2373 fold of C-CSNAP (A1) | – | –
3 | DFFNDFEELFEEDEIQ [D49,52,53,55E] | – | 1.1749 fold of C-CSNAP (A1) | 0.6996 | –
4 | DFFNDFEELFEEEDIQ [D49,52,53,54E] | – | 0.9844 fold of C-CSNAP (A1) | 0.6224 | –
5 | DFFNDFEELFEEEEIQ [D49,52,53,54,55E] | – | 1.1796 fold of C-CSNAP (A1) | 0.6658 | –
6 | DFFNDWEDLFDDDDIQ [Position C14, C-CSNAP, Phe to Trp substitution F47W] | 0.9440 fold of C-CSNAP (A1) | 1.1204 fold of C-CSNAP (A1) | – | –
7 | DFFNEFEDLFDDDDIQ [D 4, C-CSNAP, Asp to Glu substitution D46E] | 1.0255 fold of C-CSNAP (A1) | 1.0457 fold of C-CSNAP (A1) | – | –
8 | DFFNEFEDLFDDDEIQ [Position D20, C-CSNAP, Asp to Glu substitution D46,55E] | 0.7799 fold of C-CSNAP (A1) | 1.3581 fold of C-CSNAP (A1) | – | –
9 | DFFNEFEDLFDDEDIQ [Position D19, C-CSNAP, Asp to Glu substitution D46,54E] | 0.6165 fold of C-CSNAP (A1) | 1.1127 fold of C-CSNAP (A1) | – | –
10 | DFFNEFEDLFDEDDIQ [Position D18, C-CSNAP, Asp to Glu substitution D46,53E] | 0.5559 fold of C-CSNAP (A1) | 1.0532 fold of C-CSNAP (A1) | – | –
11 | DFFNEFEDLFEDDDIQ [Position D17, C-CSNAP, Asp to Glu substitution D46,52E] | 0.7655 fold of C-CSNAP (A1) | 1.1441 fold of C-CSNAP (A1) | – | –
12 | DFFNEFEELFDDDDIQ [Position D16, C-CSNAP, Asp to Glu substitution D46,49E] | 0.7250 fold of C-CSNAP (A1) | 1.2614 fold of C-CSNAP (A1) | – | –
13 | DFFNEFEELFDDDEIQ [Position E16, C-CSNAP, Asp to Glu substitution D46,49,55E] | 0.6983 fold of C-CSNAP (A1) | 0.9545 fold of C-CSNAP (A1) | – | –
14 | DFFNEFEELFDDEDIQ [Position E15, C-CSNAP, Asp to Glu substitution D46,49,54E] | 0.5680 fold of C-CSNAP (A1) | 0.8747 fold of C-CSNAP (A1) | – | –
15 | DFFNEFEELFDEDDIQ [Position E14, C-CSNAP, Asp to Glu substitution D46,49,53E] | 0.6197 fold of C-CSNAP (A1) | 0.9920 fold of C-CSNAP (A1) | – | –
16 | DFFNEFEELFDEEEIQ [D46,49,53,54,55E] | – | 1.4630 fold of C-CSNAP (A1) | 0.6202 | –
17 | DFFNEFEELFEDDDIQ [Position E13, C-CSNAP, Asp to Glu substitution D46,49,52E] | 0.6592 fold of C-CSNAP (A1) | 1.2426 fold of C-CSNAP (A1) | – | –
18 | DFFNEFEELFEDDEIQ [D46,49,52,55E] | – | 1.1176 fold of C-CSNAP (A1) | 0.6253 | –

Row | Sequence | Average fold change, intensities as fold of C-CSNAP (A1) (recombinant CSN complex) | Average fold change (CSN^ΔCSNAP complex; [1]) | Average fold change (recombinant CSN complex) [fold] | Average fold change (CSN^ΔCSNAP complex; [2]) [fold]
19 | DFFNEFEELFEDEDIQ [D46,49,52,54E] | – | 0.9254 fold of C-CSNAP (A1) | 0.5934 | –
20 | DFFNEFEELFEDEEIQ [D46,49,52,54,55E] | – | 1.2301 fold of C-CSNAP (A1) | 0.5968 | –
21 | DFFNEFEELFEEDDIQ [D46,49,52,53E] | – | 0.8013 fold of C-CSNAP (A1) | 0.5885 | –
22 | DFFNEFEELFEEDEIQ [D46,49,52,53,55E] | – | 1.1600 fold of C-CSNAP (A1) | 0.5677 | –
23 | DFFNEFEELFEEEDIQ [D46,49,52,53,54E] | – | 1.3745 fold of C-CSNAP (A1) | 0.5724 | –
24 | DFFNEFEELFEEEEIQ [D46,49,52,53,54,55E] | – | 1.0133 fold of C-CSNAP (A1) | 0.5470 | –
25 | DFWNDFEDLFDDDDIQ [Position C13, C-CSNAP, Phe to Trp substitution F44W] | 0.8173 fold of C-CSNAP (A1) | 1.2883 fold of C-CSNAP (A1) | – | –
26 | DFWNDWEDLWDDDDIQ [Position C22, C-CSNAP, Phe to Trp substitution F44,47,51W] | 0.6112 fold of C-CSNAP (A1) | 1.2126 fold of C-CSNAP (A1) | – | –
27 | DLAANEKAVHADFFNDFEDLFDDDDIQ [Position A12, CSNAP residues 31-57] | 0.9978 fold of C-CSNAP (A1) | – | – | 1.0405
28 | DLDEAGGSTGLLMDLAANEKAVHADFFNDFEDLFDDDDIQ [B 1, CSNAP residues 18-57] | 1.1704 fold of C-CSNAP (A1) | – | – | 0.9126
29 | DWFNDFEDLFDDDDIQ [Position C12, C-CSNAP, Phe to Trp substitution F43W] | 0.7756 fold of C-CSNAP (A1) | 1.2910 fold of C-CSNAP (A1) | – | –
30 | DWFNDFEDLWDDDDIQ [Position C18, C-CSNAP, Phe to Trp substitution F43,51W] | 0.5534 fold of C-CSNAP (A1) | 1.2485 fold of C-CSNAP (A1) | – | –
31 | DWFNDWEDLFDDDDIQ [Position C17, C-CSNAP, Phe to Trp substitution F43,47W] | 0.7959 fold of C-CSNAP (A1) | 1.5247 fold of C-CSNAP (A1) | – | –
32 | DWFNDWEDLWDDDDIQ [Position C23, C-CSNAP, Phe to Trp substitution F43,47,51W] | 0.4941 fold of C-CSNAP (A1) | 0.6854 fold of C-CSNAP (A1) | – | –
33 | DWWNDFEDLFDDDDIQ [Position C16, C-CSNAP, Phe to Trp substitution F43,44W] | 0.7427 fold of C-CSNAP (A1) | 1.3233 fold of C-CSNAP (A1) | – | –
34 | DWWNDWEDLWDDDDIQ [D 2, C-CSNAP, Phe to Trp substitution F43,44,47,51W] | 0.6800 fold of C-CSNAP (A1) | 0.9168 fold of C-CSNAP (A1) | – | –
35 | EAGGSTGLLMDLAANEKAVHADFFNDFEDLFDDDDIQ [Position A22, CSNAP residues 21-57] | 1.1428 fold of C-CSNAP (A1) | – | – | 1.3163
36 | EFFNDFEDLFDDDEIQ [Position D15, C-CSNAP, Asp to Glu substitution D42,55E] | 0.7777 fold of C-CSNAP (A1) | 1.0098 fold of C-CSNAP (A1) | – | –
